Assay results taken from US20260258039A1, “AROMATIC COMPOUND, METHOD FOR PREPARING SAME, AND USE THEREOF IN PREPARATION OF ESTROGEN RECEPTOR DEGRADER” (Hinova Pharmaceuticals Inc., priority 2022, published 2026).

Target: T1, ER (Homo sapiens, UniProt P03372)
T1 construct: T47D breast cancer cells were subcultured in cell culture medium; endogenous in cells; host or cells: T47D breast cancer cells
T1 sequence (P03372 1-595): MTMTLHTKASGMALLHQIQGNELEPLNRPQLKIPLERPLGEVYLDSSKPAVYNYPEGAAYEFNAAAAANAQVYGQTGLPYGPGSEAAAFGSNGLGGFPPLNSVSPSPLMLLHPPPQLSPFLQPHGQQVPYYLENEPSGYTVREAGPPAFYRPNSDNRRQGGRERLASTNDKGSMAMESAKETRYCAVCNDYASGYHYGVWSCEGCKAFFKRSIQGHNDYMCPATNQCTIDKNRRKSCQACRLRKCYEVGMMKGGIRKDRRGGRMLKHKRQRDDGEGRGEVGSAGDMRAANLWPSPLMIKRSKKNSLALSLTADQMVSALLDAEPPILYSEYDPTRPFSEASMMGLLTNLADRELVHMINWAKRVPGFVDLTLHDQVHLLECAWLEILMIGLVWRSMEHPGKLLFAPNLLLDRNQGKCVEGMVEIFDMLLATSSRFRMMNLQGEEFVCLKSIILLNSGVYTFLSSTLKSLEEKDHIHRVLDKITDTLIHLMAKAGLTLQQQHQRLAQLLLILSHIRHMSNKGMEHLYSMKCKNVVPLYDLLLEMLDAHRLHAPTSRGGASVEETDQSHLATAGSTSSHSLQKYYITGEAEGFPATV
Test: Degradation activities on ER (ELISA) in T47D breast cancer cells
Assay type: cell-based
Conditions: T47D cells, 24 h, ELISA; for DC50: concentration required to degrade 50% of the target protein; for Dmax: maximum percentage of target protein degraded, read-out: Dmax
Experimental: T47D breast cancer cells were subcultured in cell culture medium, and then the cells in good growth condition were seeded into 96-well plates at 80 µL/well, with 2.5×10^4 cells per well. The cells were incubated in a 37° C., 5% CO2 incubator for 3 days. The drug was prepared into a 10 mM stock solution with dimethyl sulfoxide (DMSO). Prior to use, the stock solution was diluted with cell culture medium to obtain six final concentrations (100 nM, 25 nM, 6.25 nM, 1.56 nM, 0.39 nM, and […]), and gently mixed. Additionally, negative control wells (only containing culture medium) and positive control wells (only containing cells and DMSO) were included. After the cells were incubated in the incubator for 24 h, the cells were rinsed once with ice-cold 1×PBS. […] The plate was sealed with plastic film, and incubated in a 37° C. incubator for 2 h. The film was removed. 200 μL of 1× washing buffer was added to each well, and then the plate was shaken for 5 min. The washing buffer was discarded, and the plate was pat-dried. The plate was washed four times. 100 μL of freshly prepared detection antibody (green) was added to each well of the ELISA plate. The plate was sealed with plastic film, and then incubated in a 37° C. incubator for 1 h. The film was removed, and the detection antibody was discarded. The plate was pat-dried. 200 μL of 1× washing buffer was added to each well, and then the plate was shaken for 5 min. The washing buffer was discarded, and the plate was pat-dried. The plate was washed four times. 100 μL of freshly prepared HRP-labeled secondary antibody (red) was added to each well of the ELISA plate. The plate was sealed with plastic film, and incubated in a 37° C. incubator for 30 min. The film was removed, the secondary antibody was discarded, and the plate was pat-dried, followed by adding 200 μL of 1× washing buffer to each well. The plate was shaken for 5 min, and the washing buffer was discarded before pat-drying the plate. The plate was washed four times. 100 μl of TMB substrate was added to each well of the ELISA plate, followed by incubating in a 37° C. incubator for 5 min. 100 μL of STOP solution was added to each well of the ELISA plate, and the plate was gently shaken for a few seconds. The bottom of each well was wiped with lint-free cloth. Within 30 min after adding the STOP solution, the absorbance was read at 450 nm. […] The data were analyzed using the Dose-response equation in GraphPad Prism8 software to obtain the DC50 and Dmax values, and both of them are important indicators for measuring the degradation activities of compounds on target proteins. […] The Dmax value represents the maximum percentage of target protein that can be degraded by the compound.

Row | SMILES | DC50 | Dmax
1 | O=C1CCC(N2Cc3cc(N4CC5(CCN(CC6CCN(c7c(F)cc([C@@H]8c9ccc(OCc%10ccccc%10)cc9OC[C@@H]8c8ccccc8F)cc7F)CC6)CC5)C4)ccc3C2=O)C(=O)N1 (stereo partly drawn) [Example 51, 3-(5-(7-((1-(4-(cis-7-(benzyloxy)-3-(2-fluorophenyl)chroman-4-yl)-2,6-difluorophenyl)piperidin-4-yl)methyl)-2,7-diazaspiro[3.5]nonane-2-yl)-1-oxoisoinodolin-2-yl)piperidin-2,6-one] | > 100 nM | < 50%
2 | O=C1CCC(N2Cc3cc(N4CCC(N5CC6(CCN(c7ccc([C@@H]8c9ccc(O)cc9OC[C@@H]8c8ccccc8)cc7F)CC6)C5)CC4)ccc3C2=O)C(=O)N1 (stereo partly drawn) [Example 23, 3-(5-(4-(7-(4-(cis-3-(2-fluorophenyl)-7-hydroxychroman-4-yl)phenyl)-2,7-diazaspiro[3.5]nonane-2-yl)piperidin-1-yl)-1-oxoisoinodolin-2-yl)piperidin-2,6-dione] | 10 to 50 nM | > 75%
3 | O=C1CCC(N2C(=O)c3ccc(N4CC5(CN(CC6CCN(c7ccc([C@@H]8c9ccc(O)cc9CC[C@@H]8c8ccccc8)cc7)CC6)C5)C4)cc3C2=O)C(=O)N1 (stereo partly drawn) [Example 3, 2-(2,6-dioxopiperidin-3-yl)-5-(6-((1-(4-((1R,2S)-6-hydroxyl-2-phenyl-1,2,3,4-tetrahydronaphthalen-1-yl)phenyl)piperidin-4-yl)methyl)-2,6-diazaspiro[3.3]heptan-2-yl)isoinodolin-1,3-dione] | > 100 nM | 
4 | O=C1CCC(N2Cc3cc(N4CC5(CCN(CC6CCN(c7ccc([C@H]8c9ccc(O)cc9OC[C@H]8c8cccc(F)c8F)cc7F)CC6)CC5)C4)ccc3C2=O)C(=O)N1 (stereo partly drawn) [Example 24, 3-(5-(7-((1-(4-((3R,4S)-3-(2,3-difluorophenyl)-7-hydroxychroman-4-yl)-2-fluorophenyl)piperidin-4-yl)methyl)-2,7-diazaspiro[3.5]nonane-2-yl)-1-oxoisoinodolin-2-yl)piperidin-2,6-dione] | > 100 nM | < 50%
5 | O=C1CCC(N2Cc3cc(N4CC5(CCN(CC6CCN(c7ccc([C@H]8c9ccc(O)cc9OC[C@H]8c8c(F)cccc8F)cc7)CC6)CC5)C4)ccc3C2=O)C(=O)N1 (stereo partly drawn) [Example 72, 3-(5-(7-((1-(4-((3R,4S)-3-(2,6-difluorophenyl)-7-hydroxychroman-4-yl)phenyl)piperidin-4-yl)methyl)-2,7-diazaspiro[3.5]nonane-2-yl)-1-oxoisoindol-2-yl)piperidin-2,6-dione] |  | < 50%
6 | O=C1CCC(N2Cc3cc(N4CC5(CCN(CC6CCN(c7c(F)cc(C8=C(c9ccccc9F)COc9cc(OCc%10ccccc%10)ccc98)cc7F)CC6)CC5)C4)ccc3C2=O)C(=O)N1 (centres unmarked) [Example 52] | > 100 nM | < 50%
7 | O=C1CCC(N2Cc3cc(N4CCC(N5CC6(CCN(c7ccc([C@H]8c9ccc(O)cc9CC[C@H]8c8ccccc8F)cc7)CC6)C5)CC4)ccc3C2=O)C(=O)N1 (stereo partly drawn) [Example 21, 3-(5-(4-(7-(4-((1S,2R)-2-(2-fluorophenyl)-6-hydroxyl-1,2,3,4-tetrahydronaphthalen-1-yl)phenyl)-2,7-diazaspiro[3.5]nonane-2-yl)piperidin-1-yl)-1-oxoisoinodolin-2-yl)piperidin-2,6-dione] | > 100 nM | < 50%
8 | O=C1CCC(N2Cc3cc(N4CC5(CCN(CC6CCN(c7c(F)cc([C@H]8c9ccc(O)cc9OC[C@H]8c8cccc(F)c8F)cc7F)CC6)CC5)C4)ccc3C2=O)C(=O)N1 (stereo partly drawn) [Example 39, 3-(5-(7-((1-(4-((3R,4S)-3-(2,3-difluorophenyl)-7-hydroxychroman-4-yl)-2,6-difluorophenyl)piperidin-4-yl)methyl)-2,7-diazaspiro[3.5]nonane-2-yl)-1-oxoisoinodolin-2-yl)piperidin-2,6-one] | > 100 nM | < 50%
9 | O=C1CCC(N2Cc3cc(N4CC5(CCN(CC6CCN(c7c(F)cc(C8=C(c9c(F)cccc9F)COc9cc(OCc%10ccccc%10)ccc98)cc7F)CC6)CC5)C4)ccc3C2=O)C(=O)N1 (centres unmarked) [Example 43] | > 100 nM | < 50%
10 | O=C1CCC(N2Cc3cc(N4CCC(N5CC6(CCN(c7ccc([C@@H]8c9ccc(O)cc9CC[C@@H]8c8ccccc8F)cc7F)CC6)C5)CC4)ccc3C2=O)C(=O)N1 (stereo partly drawn) [Example 67, 3-(5-(4-(7-(2-fluoro-4-((1,2-cis)-2-(2-fluorophenyl)-6-hydroxyl-1,2,3,4-tetrahydronaphthalen-1-yl)phenyl)-2,7-diazaspiro[3.5]nonane-2-yl)piperidin-1-yl)-1-oxoisoinodolin-2-yl)pyridine-2,6-dione] | < 10 nM | > 75%
11 | O=C1CCC(N2Cc3cc(N4CCC(N5CC6(CCN(c7ccc([C@@H]8c9ccc(O)cc9OC[C@@H]8c8ccccc8)cc7)CC6)C5)CC4)ccc3C2=O)C(=O)N1 (some centres unmarked) [Example 13] | < 10 nM | > 75%
12 | O=C1CCC(N2Cc3cc(N4CC5(CCN(CC6CCN(c7c(F)cc([C@H]8c9ccc(O)cc9OC[C@H]8c8c(F)cccc8F)cc7F)CC6)CC5)C4)ccc3C2=O)C(=O)N1 (some centres unmarked) [Example 41] | > 100 nM | < 50%
13 | O=C1CC[C@@H](N2Cc3cc(N4CC5(CCN(CC6CCN(c7ccc([C@@H]8c9ccc(O)cc9OC[C@@H]8c8ccccc8F)cc7)CC6)CC5)C4)ccc3C2=O)C(=O)N1 [Example 90, (R)-3-(5-(7-((1-(4-((3S, 4R)-3-(2-fluorophenyl)-7-hydroxychroman-4-yl)phenyl)piperidin-4-yl)methyl)-2,7-diazaspiro[3.5]nonane-2-yl)-1-oxoisoinodolin-2-yl)piperidin-2,6-dione] | > 100 nM | < 50%
14 | O=C1CCC(N2Cc3cc(N4CCC5(CCN(C6CCN(c7ccc([C@@H]8c9ccc(O)cc9CC[C@@H]8c8ccccc8)cc7)CC6)C5)C4)ccc3C2=O)C(=O)N1 (some centres unmarked) [Example 66, 3-(5-(7-(1-(4-(6-hydroxyl-2-phenyl-1,2,3,4-tetrahydronaphthalen-1-yl)phenyl)piperidin-4-yl)-2,7-diazaspiro[4.4]nonane-2-yl)-1-oxoisoinodolin-2-yl)piperidin-2,6-dione] | > 100 nM | < 50%
15 | O=C1CCC(N2Cc3cc(N4CC5(CCN(CC6CCN(c7ccc([C@H]8c9ccc(O)cc9OC[C@H]8c8c(F)cccc8F)cc7F)CC6)CC5)C4)ccc3C2=O)C(=O)N1 (stereo partly drawn) [Example 71, 3-(5-(7-((1-(4-((3R,4S)-3-(2,6-difluorophenyl)-7-hydroxychroman-4-yl)-2-fluorophenyl)piperidin-4-yl)methyl)-2,7-diazaspiro[3.5]nonane-2-yl)-1-oxoisoinodolin-2-yl)piperidin-2,6-dione] | > 100 nM | < 50%
16 | O=C1CCC(N2Cc3cc(N4CC5(CCN(CC6CCN(c7ccc([C@@H]8c9ccc(O)cc9OC[C@@H]8c8ccc(F)cc8F)cc7)CC6)CC5)C4)ccc3C2=O)C(=O)N1 (stereo partly drawn) [Example 46, 3-(5-(7-((1-(4-(cis-3-(2,4-difluorophenyl)-7-hydroxychroman-4-yl)phenyl)piperidin-4-yl)methyl)-2,7-diazaspiro[3.5]nonane-2-yl)-1-oxoisoinodolin-2-yl)piperidin-2,6-dione] | 10 to 50 nM | 50 to 75%
17 | O=C1CCC(N2Cc3cc(N4CC5(CCN(CC6CCN(c7c(F)cc([C@@H]8c9ccc(O)cc9OC[C@@H]8c8cccc(F)c8F)cc7F)CC6)CC5)C4)ccc3C2=O)C(=O)N1 (stereo partly drawn) [Example 48, 3-(5-(7-((1-(2,6-difluoro-4-(cis-3-(2,3-difluorophenyl)-7-hydroxychroman-4-yl)phenyl)piperidin-4-yl)methyl)-2,7-diazaspiro[3.5]nonane-2-yl)-1-oxoisoinodolin-2-yl)piperidin-2,6-dione] | < 10 nM | 50 to 75%
